# Measurements published in patent US20240218022A1, “ANTI-VISTA MACROCYCLIC PEPTIDES AND COMPOSITIONS” (BRISTOL-MYERS SQUIBB COMPANY, priority 2022, published 2024).
# Starred links: 1 amine or outer side, 2 acyl side, 3 side chain; linkers in the order of their positions; H or OH if unused. Positions of bridges follow the written chain, without caps; N, C: chain ends. Non-standard residues stand in square brackets, D forms with d. Residues, ends and D or L forms follow the SMILES beside them. Phe(3-Me) = Cc1cccc(C[C@H](N)C(=O)O)c1; γGlu = O=C(O)[C@H](CCC(=O)[*:2])N[*:1]; βAsp = O=C(O)[C@H](CC(=O)[*:2])N[*:1]; Ahp(2) = CCCCC[C@H](N)C(=O)O; NMeNle = CCCC[C@H](NC)C(=O)O; Tle = CC(C)(C)[C@H](N)C(=O)O; NHexGly = CCCCCCNCC(=O)O; Nle = CCCC[C@H](N)C(=O)O; Aun = NCCCCCCCCCCC(=O)O; Dab = NCC[C@H](N)C(=O)O; Dap = NC[C@H](N)C(=O)O; AEEA = NCCOCCOCC(=O)O
# Target: T1, mouse VISTA (mVISTA) (Mus musculus, UniProt Q9D659)
# T1 construct: expressed in transfected cells; host or cells: Human embryonic kidney 293T cells
# T1 sequence (Q9D659 33-308): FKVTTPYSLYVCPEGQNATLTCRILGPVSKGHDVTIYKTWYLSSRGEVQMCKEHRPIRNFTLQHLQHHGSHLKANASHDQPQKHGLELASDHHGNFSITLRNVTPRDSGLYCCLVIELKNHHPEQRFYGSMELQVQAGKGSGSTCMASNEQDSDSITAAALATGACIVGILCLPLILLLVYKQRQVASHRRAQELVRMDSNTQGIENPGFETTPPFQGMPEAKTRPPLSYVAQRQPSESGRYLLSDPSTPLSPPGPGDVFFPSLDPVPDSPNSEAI
# Test: Cell-Based Binding High-Content Assay For mVISTA (HC CBA mVISTA)
# Conditions: cell-based binding high-content assay; read-out: HC CBA mVISTA IC50
# Procedure, shortened: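 Competition of compound with a biotinylated peptide (final 2 nM, 30 min at RT) for binding to mVISTA on 293T cells, run under no-wash or wash (1 h compound preincubation then removal) formats. Readout by Alexa 647–streptavidin imaging on a high-content platform; four-parameter logistic fit gave IC50.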
row,SMILES,IC50
1,CCCCCCN1CC(=O)N[C@@H](Cc2ccc(O)cc2)C(=O)N[C@@H](CC(C)C)C(=O)N[C@@H](CC(N)=O)C(=O)N[C@@H](CCCNC(=N)N)C(=O)N(C)[C@@H](CCCC)C(=O)N[C@@H](CCCCC)C(=O)N2CCC[C@H]2C(=O)N[C@@H](C(C)(C)C)C(=O)N[C@@H](CO)C(=O)N[C@H](C(=O)N[C@@H](CCC(=O)N[C@@H](CCN)C(=O)NCCCCCCCCCCC(=O)O)C(=O)O)CSCC(=O)N[C@@H](Cc2ccccc2)C(=O)N[C@@H](Cc2ccc(O)cc2)C(=O)N[C@@H](CC(=O)O)C1=O [Example 2323] ({CH2CO}-FYD[NHexGly]YLNR[NMeNle][Ahp(2)]P[Tle]SC[γGlu][Dab][Aun]-OH; thioether N-14),33.9 nM
2,CCCCCCN1CC(=O)N[C@@H](Cc2ccc(O)cc2)C(=O)N[C@@H](CCCC)C(=O)N[C@@H](CC(N)=O)C(=O)N[C@@H](CCCNC(=N)N)C(=O)N(C)[C@@H](CCCC)C(=O)N[C@@H](CCCCC)C(=O)N2CCC[C@H]2C(=O)N[C@@H](C(C)(C)C)C(=O)N[C@@H](CO)C(=O)N[C@H](C(=O)NCC(=O)N[C@@H](CC(=O)NCCOCCOCC(=O)NCCCCCCCCCCC(=O)O)C(=O)O)CSCC(=O)N[C@@H](Cc2ccccc2)C(=O)N[C@@H](Cc2cccc(C)c2)C(=O)N[C@@H](CC(=O)O)C1=O [Example 2327] ({CH2CO}-F[Phe(3-Me)]D[NHexGly]Y[Nle]NR[NMeNle][Ahp(2)]P[Tle]SCG[βAsp][AEEA][Aun]-OH; thioether N-14),33.7 nM
3,CCCCCCN1CC(=O)N[C@@H](Cc2ccc(O)cc2)C(=O)N[C@@H](CCCC)C(=O)N[C@@H](CC(N)=O)C(=O)N[C@@H](CCCNC(=N)N)C(=O)N(C)[C@@H](CCCC)C(=O)N[C@@H](CCCCC)C(=O)N2CCC[C@H]2C(=O)N[C@@H](C(C)(C)C)C(=O)N[C@@H](CC(=O)O)C(=O)N[C@H](C(=O)N[C@@H](CO)C(=O)NCCOCCOCC(=O)NCCCCCCCCCCC(=O)O)CSCC(=O)N[C@@H](Cc2ccccc2)C(=O)N[C@@H](Cc2c[nH]c3ccccc23)C(=O)N[C@@H](CC(=O)O)C1=O [Example 2337] ({CH2CO}-FWD[NHexGly]Y[Nle]NR[NMeNle][Ahp(2)]P[Tle]DCS[AEEA][Aun]-OH; thioether N-14),21.7 nM

# The next lines start with the values.
row,IC50,SMILES
1,52 nM,CCCCCCN1CC(=O)N[C@@H](Cc2ccc(O)cc2)C(=O)N[C@@H](CCCC)C(=O)N[C@@H](CC(N)=O)C(=O)N[C@@H](CCCNC(=N)N)C(=O)N(C)[C@@H](CCCC)C(=O)N[C@@H](CCCCC)C(=O)N2CCC[C@H]2C(=O)N[C@@H](C(C)(C)C)C(=O)N[C@@H](CC(=O)O)C(=O)N[C@H](C(=O)N[C@@H](CC(N)=O)C(=O)NCCOCCOCC(=O)NCCCCCCCCCCC(=O)O)CSCC(=O)N[C@@H](Cc2ccccc2)C(=O)N[C@@H](Cc2c[nH]c3ccccc23)C(=O)N[C@@H](CC(=O)O)C1=O [Example 2338] ({CH2CO}-FWD[NHexGly]Y[Nle]NR[NMeNle][Ahp(2)]P[Tle]DCN[AEEA][Aun]-OH; thioether N-14)
2,26.1 nM,CCCCCCN1CC(=O)N[C@@H](Cc2ccc(O)cc2)C(=O)N[C@@H](CCCC)C(=O)N[C@@H](CC(N)=O)C(=O)N[C@@H](CCCNC(=N)N)C(=O)N(C)[C@@H](CCCC)C(=O)N[C@@H](CCCCC)C(=O)N2CCC[C@H]2C(=O)N[C@@H](C(C)(C)C)C(=O)N[C@@H](CC(=O)O)C(=O)N[C@H](C(=O)N[C@@H](CN)C(=O)NCCOCCOCC(=O)NCCCCCCCCCCC(=O)O)CSCC(=O)N[C@@H](Cc2ccccc2)C(=O)N[C@@H](Cc2c[nH]c3ccccc23)C(=O)N[C@@H](CC(=O)O)C1=O [Example 2339] ({CH2CO}-FWD[NHexGly]Y[Nle]NR[NMeNle][Ahp(2)]P[Tle]DC[Dap][AEEA][Aun]-OH; thioether N-14)
